Results as given in US20240124412A1, “IKAROS ZINC FINGER FAMILY DEGRADERS AND USES THEREOF” (Gilead Sciences, Inc., priority 2021, published 2024).

Experiments:
IKZF2 = target: T1, IKZF2 (Homo sapiens, UniProt Q96SW2+Q9UKS7); experiment: HiBiT protein tagging assay, in vitro IKZF2 degradation (HEK293); assay type: cell-based; details: HEK293, 18-24 hr incubation, normalized to DMSO control; for Dmax: HEK293, HiBiT assay, read-out: IKZF2 Dmax (maximum degradation at the highest concentration tested); for DC50: HiBiT assay, read-out: IKZF2 EC50
T1 construct: expressed in transfected cells
Procedure, shortened: (§1)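 Flp-In T-REx HEK293 pools stably expressing C-terminal HiBiT-tagged IKZF1 or IKZF2 were induced overnight with 1 μg/ml doxycycline. Cells were then treated with serially diluted compound for 18-24 hr at 37 °C and read by Nano-Glo lytic luminescence. Data were normalized to 0.5% DMSO as POC; EC50 and Dmax (maximum degradation at highest concentration tested) reported.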

IKZF1 = target: T2, IKZF1 (Homo sapiens, UniProt Q13422+Q96SW2); experiment: HiBiT protein tagging assay, in vitro IKZF1 degradation (HEK293); assay type: cell-based; details: HEK293, 18-24 hr incubation, normalized to DMSO control; for Dmax: read-out: IKZF1 Dmax (maximum degradation at the highest concentration tested); for DC50: read-out: IKZF1 EC50
T2 construct: expressed in transfected cells
Procedure, shortened: as §1

T1 sequence (Q9UKS7 1-500 isoform Q9UKS7-2): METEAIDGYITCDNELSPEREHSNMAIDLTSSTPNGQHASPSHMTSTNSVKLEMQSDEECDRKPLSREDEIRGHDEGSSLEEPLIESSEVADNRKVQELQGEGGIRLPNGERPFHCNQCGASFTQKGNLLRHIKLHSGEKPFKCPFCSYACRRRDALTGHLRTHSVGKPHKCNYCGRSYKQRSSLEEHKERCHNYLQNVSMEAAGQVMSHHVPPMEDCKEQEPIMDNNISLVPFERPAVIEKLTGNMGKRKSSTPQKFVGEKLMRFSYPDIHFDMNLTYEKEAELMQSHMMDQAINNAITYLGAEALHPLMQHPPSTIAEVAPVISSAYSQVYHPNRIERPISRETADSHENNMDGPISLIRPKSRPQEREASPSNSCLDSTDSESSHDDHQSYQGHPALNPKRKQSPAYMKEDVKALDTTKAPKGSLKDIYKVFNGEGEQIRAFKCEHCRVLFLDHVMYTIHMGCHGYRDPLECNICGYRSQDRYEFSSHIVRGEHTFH
T1 sequence (Q96SW2 whole entry): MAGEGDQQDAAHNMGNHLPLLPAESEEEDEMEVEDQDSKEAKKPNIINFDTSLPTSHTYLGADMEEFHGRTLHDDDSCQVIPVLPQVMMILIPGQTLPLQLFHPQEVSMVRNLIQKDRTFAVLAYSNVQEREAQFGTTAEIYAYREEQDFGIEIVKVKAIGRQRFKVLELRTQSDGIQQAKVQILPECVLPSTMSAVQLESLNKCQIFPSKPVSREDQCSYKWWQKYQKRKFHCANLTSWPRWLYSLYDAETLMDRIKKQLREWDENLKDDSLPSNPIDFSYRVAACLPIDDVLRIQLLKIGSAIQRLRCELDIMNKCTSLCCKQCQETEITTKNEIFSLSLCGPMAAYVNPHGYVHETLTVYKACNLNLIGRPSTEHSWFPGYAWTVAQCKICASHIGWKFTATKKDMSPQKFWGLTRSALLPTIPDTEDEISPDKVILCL
T1 sequence (Q16531 whole entry partner): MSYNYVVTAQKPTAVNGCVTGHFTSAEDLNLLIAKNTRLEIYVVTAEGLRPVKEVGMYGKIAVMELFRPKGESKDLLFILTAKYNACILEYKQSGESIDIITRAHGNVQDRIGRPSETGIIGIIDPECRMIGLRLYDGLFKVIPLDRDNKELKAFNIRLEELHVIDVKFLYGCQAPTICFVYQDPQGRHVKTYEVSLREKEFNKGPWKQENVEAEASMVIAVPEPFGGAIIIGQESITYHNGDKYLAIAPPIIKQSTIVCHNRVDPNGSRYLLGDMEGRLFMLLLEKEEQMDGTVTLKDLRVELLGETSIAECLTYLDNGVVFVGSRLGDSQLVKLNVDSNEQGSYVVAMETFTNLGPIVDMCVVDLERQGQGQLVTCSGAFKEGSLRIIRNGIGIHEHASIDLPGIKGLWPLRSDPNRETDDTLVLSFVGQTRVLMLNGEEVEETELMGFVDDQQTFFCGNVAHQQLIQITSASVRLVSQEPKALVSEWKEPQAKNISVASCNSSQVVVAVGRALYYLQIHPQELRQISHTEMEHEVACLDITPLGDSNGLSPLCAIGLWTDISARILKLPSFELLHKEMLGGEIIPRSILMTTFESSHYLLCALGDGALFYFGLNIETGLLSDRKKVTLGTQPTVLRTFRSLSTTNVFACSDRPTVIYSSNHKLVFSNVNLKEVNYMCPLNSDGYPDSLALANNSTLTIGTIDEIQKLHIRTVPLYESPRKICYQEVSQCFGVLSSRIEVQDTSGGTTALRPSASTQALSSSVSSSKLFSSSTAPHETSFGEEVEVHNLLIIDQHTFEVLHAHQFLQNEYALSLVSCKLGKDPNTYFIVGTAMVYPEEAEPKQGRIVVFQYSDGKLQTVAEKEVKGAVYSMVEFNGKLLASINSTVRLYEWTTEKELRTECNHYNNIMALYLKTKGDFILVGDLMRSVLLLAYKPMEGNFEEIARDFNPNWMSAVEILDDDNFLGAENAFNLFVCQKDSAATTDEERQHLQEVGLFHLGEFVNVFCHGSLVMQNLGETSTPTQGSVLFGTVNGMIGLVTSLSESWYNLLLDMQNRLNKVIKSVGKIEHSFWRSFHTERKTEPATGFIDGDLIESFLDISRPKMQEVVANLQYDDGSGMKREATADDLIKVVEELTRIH
T2 sequence (Q13422 whole entry): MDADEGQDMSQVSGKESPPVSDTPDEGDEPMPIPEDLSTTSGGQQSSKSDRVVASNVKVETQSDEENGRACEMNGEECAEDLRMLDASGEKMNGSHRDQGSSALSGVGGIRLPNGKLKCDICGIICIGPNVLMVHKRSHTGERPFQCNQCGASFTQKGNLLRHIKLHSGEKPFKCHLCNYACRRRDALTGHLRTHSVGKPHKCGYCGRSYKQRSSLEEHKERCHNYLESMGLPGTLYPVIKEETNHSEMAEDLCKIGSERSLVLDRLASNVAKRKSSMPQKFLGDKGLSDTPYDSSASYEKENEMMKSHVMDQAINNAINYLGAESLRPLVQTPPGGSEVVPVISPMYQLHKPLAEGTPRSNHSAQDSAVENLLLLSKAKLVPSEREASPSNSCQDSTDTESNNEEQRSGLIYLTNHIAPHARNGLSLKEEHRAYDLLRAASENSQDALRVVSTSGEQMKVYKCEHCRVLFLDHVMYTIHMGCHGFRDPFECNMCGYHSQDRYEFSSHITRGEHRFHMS
T2 sequence (Q96SW2 whole entry): as the sequence (Q96SW2 whole entry) above
T2 sequence (Q16531 whole entry partner): as the sequence (Q16531 whole entry partner) above

SMILES | Dmax (IKZF2) [%] | DC50 (IKZF2) [µM] | Dmax (IKZF1) [%] | DC50 (IKZF1) [µM]
O=C1CCC(N2Cc3cc(CNC4CC5CNC4C5)ccc3C2=O)C(=O)N1 (stereo not drawn) [Example 98, 3-(5-((((1,4,6-cis)-2-azabicyclo[2.2.1]heptan-6-yl)amino)methyl)-1-oxoisoindolin-2-yl)piperidine-2,6-dione] | 39 | 1.8 | 22 | 1.5
O=C1CCC(N2Cc3cc(CN[C@@H]4CCCN(Cc5cccc(Cl)c5)C4)ccc3C2=O)C(=O)N1 (stereo partly drawn) [Example 99, 3-(5-((((R)-1-(3-chlorobenzyl)piperidin-3-yl)amino)methyl)-1-oxoisoindolin-2-yl)piperidine-2,6-dione] | 97 | 0.011 | 97 | 0.002
O=C1CCC(N2Cc3cc(CN[C@@H]4CCCN(Cc5ccc(Cl)cc5)C4)ccc3C2=O)C(=O)N1 (stereo partly drawn) [Example 100, 3-(5-((((R)-1-(4-chlorobenzyl)piperidin-3-yl)amino)methyl)-1-oxoisoindolin-2-yl)piperidine-2,6-dione] | 97 | 0.006 | 98 | 0.001
C[C@@H]1CCCC[C@H]1NCc1ccc2c(c1)CN(C1CCC(=O)NC1=O)C2=O (stereo partly drawn) [Example 101] | 71 | 0.157 | 23 | 0.107
C[C@H]1CCCC[C@@H]1NCc1ccc2c(c1)CN(C1CCC(=O)NC1=O)C2=O (stereo partly drawn) [Example 102] | 69 | 0.22 | 23 | 0.164
CC1(c2ccccc2)CCC(NCc2ccc3c(c2)CN(C2CCC(=O)NC2=O)C3=O)CC1 (stereo not drawn) [Example 103, 3-(5-(((4-methyl-4-phenylcyclohexyl)amino)methyl)-1-oxoisoindolin-2-yl)piperidine-2,6-dione] | 91 | 0.023 | 97 | 0.003
O=C1CCC(N2Cc3cc(CNC4CCC(Oc5ccccc5)CC4)ccc3C2=O)C(=O)N1 (stereo not drawn) [Example 104] | 72 | 0.042 | 82 | 0.023
O=C1CCC(N2Cc3cc(CNC4CC5CCC(C5)C4)ccc3C2=O)C(=O)N1 (stereo not drawn) [Example 105] | 92 | 0.043 | 75 | 0.074
C[C@@H]1[C@H](NCc2ccc3c(c2)CN(C2CCC(=O)NC2=O)C3=O)CCCN1Cc1ccccc1 (stereo partly drawn) [Example 106, 3-(5-((((2R,3R)-1-benzyl-2-methylpiperidin-3-yl)amino)methyl)-1-oxoisoindolin-2-yl)piperidine-2,6-dione] | 43 | 0.381 | 86 | 0.093
CO[C@H]1CCCC[C@H]1NCc1ccc2c(c1)CN(C1CCC(=O)NC1=O)C2=O (stereo partly drawn) [Example 107] | 28 | 0.265 | 38 | 0.158
CO[C@@H]1CCCC[C@@H]1NCc1ccc2c(c1)CN(C1CCC(=O)NC1=O)C2=O (stereo partly drawn) [Example 108] | 96 | 0.016 | 89 | 0.026
O=C1CCC(N2Cc3cc(CNC4CC(c5ccccc5)CN(Cc5ccccc5)C4)ccc3C2=O)C(=O)N1 (stereo not drawn) [Example 109, 3-(5-(((1-benzyl-5-phenylpiperidin-3-yl)amino)methyl)-1-oxoisoindolin-2-yl)piperidine-2,6-dione] | 30 | 0.121 | 71 | 0.045
O=C1CCC(N2Cc3cc(CN[C@H]4CCC[C@@H](Oc5ccccc5)C4)ccc3C2=O)C(=O)N1 (stereo partly drawn) [Example 110] | 72 | 0.118 | 55 | 0.105
O=C1CCC(N2Cc3cc(CN[C@H]4CCC[C@@H](OCc5ccccc5)C4)ccc3C2=O)C(=O)N1 (stereo partly drawn) [Example 111] | 56 | 0.206 | 61 | 0.085
O=C1CCC(N2Cc3cc(CN[C@@H]4CCC[C@H](OCc5ccccc5)C4)ccc3C2=O)C(=O)N1 (stereo partly drawn) [Example 112] | 90 | 0.075 | 95 | 0.007
CC1(NCc2ccc3c(c2)CN(C2CCC(=O)NC2=O)C3=O)CCCCC1 (stereo not drawn) [Example 113] | 95 | 0.049 | 27 | 0.096
O=C1CCC(N2Cc3cc(CNC4CCC5(CCc6ccccc65)CC4)ccc3C2=O)C(=O)N1 (stereo not drawn) [Example 114, 3-(5-(((2′,3′-dihydrospiro[cyclohexane-1,1′-inden]-4-yl)amino)methyl)-1-oxoisoindolin-2-yl)piperidine-2,6-dione] | 78 | 0.068 | 62 | 0.052
O=C1CCC(N2Cc3cc(CN[C@@H]4CCC[C@H](Cc5ccccc5)C4)ccc3C2=O)C(=O)N1 (stereo partly drawn) [Example 115] | 97 | 0.008 | 87 | 0.004

SMILES | Dmax (IKZF2) [%] | DC50 (IKZF2) [µM] | Dmax (IKZF1) [%] | DC50 (IKZF1) [µM]
O=C1CCC(N2Cc3cc(CN[C@H]4CCC[C@@H](Cc5ccccc5)C4)ccc3C2=O)C(=O)N1 (stereo partly drawn) [Example 116] | 81 | 0.068 | 82 | 0.023
CC1(C)C[C@]2(CC[C@H](NCc3ccc4c(c3)CN(C3CCC(=O)NC3=O)C4=O)CC2)CO1 (stereo partly drawn) [Example 117] | 88 | 0.198 | 49 | 0.216
CC1(C)C[C@]2(CC[C@@H](NCc3ccc4c(c3)CN(C3CCC(=O)NC3=O)C4=O)CC2)CO1 (stereo partly drawn) [Example 118] | 78 | 0.453 | 51 | 0.335
C[C@H]1CC[C@@H](NCc2ccc3c(c2)CN(C2CCC(=O)NC2=O)C3=O)CN1Cc1ccccc1 (stereo partly drawn) [Example 119, 3-(5-((((3R,6S)-1-benzyl-6-methylpiperidin-3-yl)amino)methyl)-1-oxoisoindolin-2-yl)piperidine-2,6-dione] | 93 | 0.105 | 94 | 0.017
O=C1CCC(N2Cc3cc(CN[C@H]4CCCC[C@H]4OCc4ccccc4)ccc3C2=O)C(=O)N1 (stereo partly drawn) [Example 120] | 97 | 0.003 | 97 | 0.002
O=C1CCC(N2Cc3cc(CNC4CCCC(Cn5cccn5)C4)ccc3C2=O)C(=O)N1 (stereo not drawn) [Example 121] | 92 | 0.336 | 93 | 0.169
O=C1CCC(N2Cc3cc(CNC4CCCC(Cn5ncc6ccccc65)C4)ccc3C2=O)C(=O)N1 (stereo not drawn) [Example 122] | 96 | 0.048 | 97 | 0.022
O=C1CCC(N2Cc3cc(CN[C@@H]4CCCN(C(c5ccccc5)C(F)(F)F)C4)ccc3C2=O)C(=O)N1 (stereo partly drawn) [Example 123] | 87 | 0.056 | 95 | 0.01
O=C1CCC(N2Cc3cc(CN[C@@H]4CCCN(Cc5cccnc5)C4)ccc3C2=O)C(=O)N1 (stereo partly drawn) [Example 124, 3-(1-oxo-5-((((R)-1-(pyridin-3-ylmethyl)piperidin-3-yl)amino)methyl)isoindolin-2-yl)piperidine-2,6-dione] | 96 | 0.318 | 96 | 0.115
O=C1CCC(N2Cc3cc(CN[C@@H]4CCCN(Cc5ccncc5)C4)ccc3C2=O)C(=O)N1 (stereo partly drawn) [Example 125, 3-(1-oxo-5-((((R)-1-(pyridin-4-ylmethyl)piperidin-3-yl)amino)methyl)isoindolin-2-yl)piperidine-2,6-dione] | 86 | 0.427 | 95 | 0.124
O=C1CCC(N2Cc3cc(CN[C@@H]4CCCC[C@H]4OCc4ccccc4)ccc3C2=O)C(=O)N1 (stereo partly drawn) [Example 126] | 93 | 0.079 | 53 | 0.151
CO[C@@H]1CCCC[C@H]1NCc1ccc2c(c1)CN(C1CCC(=O)NC1=O)C2=O (stereo partly drawn) [Example 127] | 85 | 0.17 | 57 | 0.213
O=C1CCC(N2Cc3cc(CNC4CCCC(C(F)(F)F)C4)ccc3C2=O)C(=O)N1 (stereo not drawn) [Example 128, 3-(1-oxo-5-((((1,3-trans)-3-(trifluoromethyl)cyclohexyl)amino)methyl)isoindolin-2-yl)piperidine-2,6-dione] | 64 | 0.181 | 42 | 0.104
O=C1CCC(N2Cc3cc(CN[C@@H]4CCC[C@H](C(=O)c5ccccc5)C4)ccc3C2=O)C(=O)N1 (stereo partly drawn) [Example 129] | 60 | 0.193 | 60 | 0.113
O=C1CCC(N2Cc3cc(CN[C@@H]4CCCN(Cc5ccccn5)C4)ccc3C2=O)C(=O)N1 (stereo partly drawn) [Example 130, 3-(1-oxo-5-((((R)-1-(pyridin-2-ylmethyl)piperidin-3-yl)amino)methyl)isoindolin-2-yl)piperidine-2,6-dione] | 97 | 0.138 | 97 | 0.048
CC1(C)CCCC(NCc2ccc3c(c2)CN(C2CCC(=O)NC2=O)C3=O)C1 (stereo not drawn) [Example 131] | 92 | 0.062 | 69 | 0.091
O=C1CCC(N2Cc3cc(CNC4CCCC5(CC5)C4)ccc3C2=O)C(=O)N1 (stereo not drawn) [Example 132] | 84 | 0.097 | 58 | 0.146
O=C1CCC(N2Cc3cc(CNC4CCCC5(CCCC5)C4)ccc3C2=O)C(=O)N1 (stereo not drawn) [Example 133] | 72 | 0.273 | 51 | 0.185
